{"source": "patent US8501911B2", "about": "“Methods of reducing inflammation and mucus hypersecretion” (Biomarck Pharmaceuticals, Ltd, priority 1999, dated 2013)", "key": {"[1]": {"system": "HL-60 clone 15 cells", "assay": "Inhibition of eosinophil peroxidase (EPO) release from HL-60 clone 15 cells", "type": "cell-based, human", "details": "at 50 μM of test peptide; 100 nM PMA 2 hours", "description": "The human promyelocytic cell line (Fischkoff S A, Graded increase in probability of eosinophilic differentiation of HL-60 promyelocytic leukemia cells induced by culture under alkaline conditions. Leuk. Res., 12:679-686, 1988; Rosenberg H F, Ackerman S J, Tenen D G. Human eosinophil cationic protein: molecular cloning of a cytotoxin and helminthotoxin with ribonuclease activity. J. Exp. Med., 170:163-176, 1989), HL-60 clone 15, is eosinophil-like promyelocytic human cell line which was purchased from American Type Culture Collection (ATCC) Rockville, Md. (catalog #CRL-1964). The cells were maintained in medium consisting of RPMI 1640 with glutamine supplemented with 10% heat inactivated fetal bovine serum (Gibco, Carlsbad, Calif.), 50 IU/mL penicillin, 50 μg/mL streptomycin, and 25 mM HEPES buffer, pH 7.8 at 37° C. in an atmosphere containing 5% CO2. Final differentiation of an eosinophil-like phenotype was initiated by culturing the cells at 5×10^5 cells/mL in the above medium containing 0.5 mM butyric acid (Sigma-Aldrich) for 5 days as previously described by Tiffany H L, Li F, and Rosenberg H F, Hyperglycosylation of eosinophil ribonuclease in a promyelocytic leukemia cell line and in differentiated peripheral blood progenitor cells J. Leukoc. Biol. 58: 49-54, 1995; and by Tiffany H L, Alkhatib G, Combadiere C, Berger E A, and Murphy P M., CC Chemokine receptors are differentially regulated by IL-5 during maturation of eosinophilic HL-60 cells. J. Immunol. 160:1385-1392, 1998. The cells were washed and resuspended at 2.5×10^6 per mL in phenol free RPMI-1640 (Cellgro; Mediatech Inc.). Aliquots of cells in 15 mL plastic tubes were preincubated with indicated concentration of test peptide (dissolved in PBS, pH 7.0) for 10 minutes followed by treatment of the cells with 100 nM PMA for 2 hours. The reaction was terminated by placing the tubes on ice and centrifugation of cells at 400 g for 5 min at 4° C. The eosinophil peroxidase (EPO) activity released by HL-60 clone 15 cells was assayed using TMB according to a previously established technique Paige et al (see above) and by Lacy P, Mahmudi-Azer S, Bablitz B, Hagen S C, Velazquez J R, Man S F, Moqbel R. Rapid mobilization of intracellularly stored RANTES in response to interferon-gamma in human eosinophils. Blood 94:23-32, 1999. Briefly, add 50 μL aliquots of the supernatant to 96-well microtiter plate followed by addition of 100 μL of the tetramethylbenzidine (TMB) substrate solution and incubate at room temperature for 15 minutes. The reaction was terminated by addition of 50 μL of 1.0 M sulfuric acid and absorbance was read at 450 nm in a spectrophotometric microplate reader (Molecular Devices, Sunnyvale, Calif.). The amount of secreted EPO was expressed as percentage of total content using the amount obtained in the same number of triton X-100-lysed cells.\nBecause standard EPO from HL-60 clone 15 cells was not available to use for quantification, we measured both released and intracellular (from lysed cells) levels of EPO, and expressed the released EPO as a percentage of total (intracellular and released) for each. To measure intracellular EPO in HL-60 clone 15 cells, appropriate aliquots of 0.1% triton X-100-lysed cells were taken for quantification of intracellular EPO as described above. All data are expressed as percentage of control to minimize variability between cultures."}, "[2]": {"system": "NHBE cells", "assay": "Cytotoxicity / metabolic activity of NHBE cells (LDH release, deoxyglucose uptake)", "type": "cell-based, human", "details": "peptide 1-100 μM", "method": "In Results-I-2B-1 and Results-I-2B-2, the MANS peptide blocked mucin hypersecretion induced by PMA+8-Br-cGMP or UTP in a concentration-dependent manner. NHBE cells were preincubated with the indicated peptide for 15 min and then exposed to PMA (100 nM)+8-Br-cGMP (1 μM) for 15 min or UTP (100 μM) for 2 h. Mucin secretion was measured by ELISA.\nCytotoxicity Assay—All reagents used in treating NHBE cells were examined for cytotoxicity by measuring the total release of lactate dehydrogenase from the cells. The assay was carried out using the Promega Cytotox 96 Kit according to the manufacturer's instructions. All experiments were performed with reagents at non-cytotoxic concentrations."}, "[3]": {"system": "human bronchial epithelial cells", "assay": "Basal (constitutive) mucin secretion by human bronchial epithelial cells", "type": "cell-based", "details": "peptide 100 μM, one hour incubation, no PMA or 8-Br-cGMP", "method": "Mucus secreted from the airway epithelial cells in vitro after stimulation by activators was assessed using an ELISA (antibody capture method) (E. Harlow, D. Lane. “Antibodies: A Laboratory Manual.” New York: Cold Spring Harbor Laboratory Press, 1988), wherein the collected mucus is bound directly to the ELISA plate. Mucus was detected using an antibody raised against monkey airway mucus (Lin et al. Am J Respir Cell Mol Biol 1:41, 1989).\nThe MANS peptide (100 μM) was also found to decrease constitutive (basal) mucus secretion by one hour incubation. Cells were treated as described above except that no PMA or 8-Br-cGMP was used. […] Results, designated as Results-M-1B, are presented as follows and show the inhibition of basal mucin secretion by human bronchial epithelial cells exposed to the MANS peptide (SEQ ID NO: 1) or a negative control peptide consisting of the same amino acids as the MANS peptide, but in random order (RNS peptide; random N-terminal sequence (SEQ ID NO: 26):\nThe effect of MA-PSD peptide (1, 10 and 100 μM) on basal mucin secretion was also measured. Cells as described above were incubated for one hour with the MA-PSD peptide (no PMA or 8-Br-cGMP)."}}, "note": "Residues, ends and D or L forms follow the SMILES beside them. *: point of attachment. Myristoyl = CCCCCCCCCCCCCC(=O)*"}
{"smiles": "CCCCCCCCCCCCCC(=O)NCC(=O)N[C@@H](C)C(=O)N[C@@H](CCC(N)=O)C(=O)N[C@@H](Cc1ccccc1)C(=O)N[C@@H](CO)C(=O)N[C@@H](CCCCN)C(=O)N[C@H](C(=O)N[C@@H](C)C(=O)N[C@@H](C)C(=O)N[C@@H](CCCCN)C(=O)NCC(=O)N[C@@H](CCC(=O)O)C(=O)N[C@@H](C)C(=O)N[C@@H](C)C(=O)N[C@@H](C)C(=O)N[C@@H](CCC(=O)O)C(=O)N[C@@H](CCCNC(=N)N)C(=O)N1CCC[C@H]1C(=O)NCC(=O)N[C@@H](CCC(=O)O)C(=O)N[C@@H](C)C(=O)N[C@@H](C)C(=O)N[C@H](C(=O)N[C@@H](C)C(=O)O)C(C)C)[C@@H](C)O", "note": "[MANS peptide] (Myristoyl-GAQFSKTAAKGEAAAERPGEAAVA-OH; C-terminus assumed)", "values": [{"measurement": "% Inhibition EPO", "setting": "[1]", "value": 46.1, "unit": "%"}, {"measurement": "Lactate dehydrogenase release", "setting": "[2]", "value": "neither the MANS nor the RNS peptide affected"}, {"measurement": "[3H]deoxyglucose uptake", "setting": "[2]", "value": "neither the MANS nor the RNS peptide affected"}, {"measurement": "Basal mucin secretion level relative to control", "setting": "[3]", "value": 28, "unit": "%"}]}
{"smiles": "CCCCCCCCCCCCCC(=O)NCC(=O)N[C@H](C(=O)N[C@@H](C)C(=O)N1CCC[C@H]1C(=O)N[C@@H](C)C(=O)N[C@@H](C)C(=O)N[C@@H](CCC(=O)O)C(=O)NCC(=O)N[C@@H](C)C(=O)NCC(=O)N[C@@H](C)C(=O)N[C@@H](CCC(=O)O)C(=O)N[C@H](C(=O)N[C@@H](CCCCN)C(=O)N[C@@H](CCCNC(=N)N)C(=O)N[C@@H](C)C(=O)N[C@@H](CO)C(=O)N[C@@H](C)C(=O)N[C@@H](CCC(=O)O)C(=O)N[C@@H](C)C(=O)N[C@@H](CCCCN)C(=O)N[C@@H](CCC(N)=O)C(=O)N[C@@H](C)C(=O)N[C@@H](Cc1ccccc1)C(=O)O)C(C)C)[C@@H](C)O", "note": "[RNS peptide, reference compound] (Myristoyl-GTAPAAEGAGAEVKRASAEAKQAF-OH; C-terminus assumed)", "values": [{"measurement": "% Inhibition EPO", "setting": "[1]", "value": 0, "unit": "%"}, {"measurement": "Lactate dehydrogenase release", "setting": "[2]", "value": "neither the MANS nor the RNS peptide affected"}, {"measurement": "[3H]deoxyglucose uptake", "setting": "[2]", "value": "neither the MANS nor the RNS peptide affected"}, {"measurement": "Basal mucin secretion level relative to control", "setting": "[3]", "value": 90, "unit": "%"}]}
{"smiles": "CCCCCCCCCCCCCC(=O)NCC(=O)N[C@@H](C)C(=O)N[C@@H](CCC(N)=O)C(=O)N[C@@H](Cc1ccccc1)C(=O)N[C@@H](CO)C(=O)N[C@@H](CCCCN)C(=O)N[C@H](C(=O)N[C@@H](C)C(=O)N[C@@H](C)C(=O)N[C@@H](CCCCN)C(=O)NCC(=O)N[C@@H](CCC(=O)O)C(=O)O)[C@@H](C)O", "note": "[SEQ ID NO: 13, N-myristoyl-GAQFSKTAAKGE] (Myristoyl-GAQFSKTAAKGE-OH; C-terminus assumed)", "values": [{"measurement": "% Inhibition EPO", "setting": "[1]", "value": 25.2, "unit": "%"}]}
{"smiles": "CCCCCCCCCCCCCC(=O)NCC(=O)N[C@@H](C)C(=O)N[C@@H](CCC(N)=O)C(=O)N[C@@H](Cc1ccccc1)C(=O)N[C@@H](CO)C(=O)N[C@@H](CCCCN)C(=O)N[C@H](C(=O)N[C@@H](C)C(=O)N[C@@H](C)C(=O)N[C@@H](CCCCN)C(=O)O)[C@@H](C)O", "note": "[SEQ ID NO: 15, N-myristoyl-GAQFSKTAAK] (Myristoyl-GAQFSKTAAK-OH; C-terminus assumed)", "values": [{"measurement": "% Inhibition EPO", "setting": "[1]", "value": 37.4, "unit": "%"}]}
